Results taken from paper PMC12655637, “Design, Synthesis, and Mechanistic Study of Novel Ciprofloxacin/Thiazole Chalcone Hybrids as Potential Anticancer Agents” (Pharmaceuticals, 2025).

Key:
Assay in all cases: NCI-60 screening, one-dose (10 µM) and five-dose, SRB
CCRF-CEM = assay type: cell-based, human
K-562 = assay type: cell-based, human; settings: five-dose, K-562
RPMI-8226 = assay type: cell-based, human; settings: RPMI-8226
SR = assay type: cell-based, human; settings: five-dose
EKVX = assay type: cell-based, human; settings: Homo sapiens, 10 μM, Non-Small-Cell Lung Cancer, read-out: Growth percentage
HOP-92 = assay type: cell-based, human
NCI-H226 = assay type: cell-based, human
NCI-H23 = assay type: cell-based, human
NCI-H460 = assay type: cell-based, human
COLO 205 = assay type: cell-based, human
HCC-2998 = assay type: cell-based, human
HCT-116 = assay type: cell-based, human; settings: Homo sapiens
KM12 = assay type: cell-based, human; settings: five-dose, KM12
SW-620 = assay type: cell-based, human
SF-268 = assay type: cell-based, human
SF-295 = assay type: cell-based, human
SK-MEL-2 = assay type: cell-based, human
UACC-257 = assay type: cell-based, human
OVCAR-4 = assay type: cell-based, human
786−0 = assay type: cell-based, human
ACHN = assay type: cell-based, human
CAKI-1 = assay type: cell-based
RXF 393 = assay type: cell-based; settings: Homo sapiens; 10 μM; RXF 393, Renal Cancer; read-out: Growth percentage
SN12C = assay type: cell-based, human
TK-10 = assay type: cell-based, human
DU-145 = assay type: cell-based, human
MCF7 = assay type: cell-based, human
MDA-MB231/ATCC = assay type: cell-based
HS 578T = assay type: cell-based, human
MDA-MB-468 = assay type: cell-based, human; settings: five-dose, MDA-MB-468
Description: Control cells Test cells FLD
available usually at NCI library.
An aliquot of frozen drug concentrate is […]

[1] = Homo sapiens, five-dose, read-out: LC50 (the source's name)
[2] = Homo sapiens, read-out: LC50 (the source's name)
[3] = Homo sapiens, five-dose, HOP-92
[4] = Homo sapiens, five-dose, NCI-H226
[5] = Homo sapiens, five-dose, NCI-H23
[6] = Homo sapiens, five-dose, NCI-H460
[7] = Homo sapiens, five-dose, COLO 205
[8] = Homo sapiens, five-dose, HCC-2998
[9] = Homo sapiens, five-dose, SW-620
[10] = Homo sapiens, five-dose, SF-268
[11] = Homo sapiens, five-dose, SF-295
[12] = Homo sapiens, five-dose, SK-MEL-2
[13] = Homo sapiens, five-dose, UACC-257
[14] = Homo sapiens, five-dose, OVCAR-4
[15] = Homo sapiens, 10 μM, Renal Cancer, read-out: Growth percentage
[16] = Homo sapiens, five-dose, CAKI-1
[17] = Homo sapiens, five-dose, DU-145

## Cc1nc(SCC(=O)N2CCN(c3cc4c(cc3F)c(=O)c(C(=O)O)cn4C3CC3)CC2)sc1C(=O)/C=C/c1cccc(Cl)c1 [Compound 4b, (E)-7-(4-(2-((5-(3-(3-Chlorophenyl)acryloyl)-4-methylthiazol-2-yl)thio)acetyl)piperazin-1-yl)-1-cyclopropyl-6-fluoro-4-oxo-1,4-dihydroquinoline-3-carboxylic Acid]
CCRF-CEM; Homo sapiens, 10 μM, Leukemia, read-out: Growth percentage
  activity at 10 µM: 49.7%
CCRF-CEM; Homo sapiens, five-dose
  GI50: 6.9 µM
  IC50: 11.7 µM
CCRF-CEM; [1]
  CC50: > 100 µM
CCRF-CEM; five-dose
  TGI: 31.6 µM
K-562; Homo sapiens, K562
  GI50: 4.2 µM
  IC50: 4.9 µM
K-562; Homo sapiens, K562, read-out: LC50 (the source's name)
  CC50: > 100 µM
K-562
  TGI: 100.0 µM
RPMI-8226; Homo sapiens, RPMI-8226, five-dose
  IC50: 0.3 µM
RPMI-8226; Homo sapiens, five-dose
  GI50: 0.2 µM
RPMI-8226; [1]
  CC50: 0.6 µM
RPMI-8226; five-dose
  TGI: 0.3 µM
SR; Homo sapiens
  GI50: 1.8 µM
  IC50: 3.2 µM
SR; [2]
  CC50: 9.1 µM
SR
  TGI: 4.1 µM
EKVX
  activity at 10 µM: 83.9%
HOP-92; Homo sapiens, 10 μM, HOP-92, Non-Small-Cell Lung Cancer, read-out: Growth percentage
  activity at 10 µM: 101%
HOP-92; [3]
  GI50: 44.7 µM
  IC50: > 100 µM
  LC50 (concentration killing 50% of cells): > 100 µM
HOP-92; five-dose, HOP-92
  TGI: 100.0 µM
NCI-H226; Homo sapiens, 10 μM, NCI-H226, Non-Small-Cell Lung Cancer, read-out: Growth percentage
  activity at 10 µM: 80.9%
NCI-H226; [4]
  GI50: > 100 µM
  IC50: > 100 µM
  LC50 (concentration killing 50% of cells): > 100 µM
NCI-H226; five-dose, NCI-H226
  TGI: 100.0 µM
NCI-H23; Homo sapiens, 10 μM, NCI-H23, Non-Small-Cell Lung Cancer, read-out: Growth percentage
  activity at 10 µM: 54%
NCI-H23; [5]
  GI50: > 100 µM
  IC50: > 100 µM
  LC50 (50% lethal concentration): > 100 µM
NCI-H23; five-dose, NCI-H23
  TGI: 100.0 µM
NCI-H460; Homo sapiens, NCI-H460, 10 μM, NCI-H460, Non-Small-Cell Lung Cancer, read-out: Growth percentage
  activity at 10 µM: 76.7%
NCI-H460; [6]
  GI50: 58.9 µM
  IC50: 70.8 µM
NCI-H460; Homo sapiens, five-dose, NCI-H460, read-out: LC50 (the source's name)
  CC50: > 100 µM
NCI-H460; five-dose, NCI-H460
  TGI: 100.0 µM
COLO 205; Homo sapiens, 10 μM, COLO 205, Colon Cancer, read-out: Growth percentage
  activity at 10 µM: 114%
COLO 205; [7]
  GI50: 4.3 µM
  IC50: 6.2 µM
COLO 205; Homo sapiens, five-dose, COLO 205, read-out: LC50 (the source's name)
  CC50: > 100 µM
COLO 205; five-dose, COLO 205
  TGI: 100.0 µM
HCC-2998; Homo sapiens, 10 μM, HCC-2998, Colon Cancer, read-out: Growth percentage
  activity at 10 µM: 25.6%
HCC-2998; [8]
  GI50: 1.2 µM
  IC50: 2.2 µM
HCC-2998; five-dose, HCC-2998
  TGI: 2.9 µM
HCT-116; HCT-116, 10 μM, HCT-116, Colon Cancer, read-out: Growth percentage
  activity at 10 µM: 2.8%
HCT-116; five-dose, HCT-116
  GI50: 0.2 µM
  IC50: 0.3 µM
KM12; Homo sapiens
  GI50: 0.9 µM
  IC50: 1.3 µM
  LC50: 9.3 µM
KM12
  TGI: 3.0 µM
SW-620; Homo sapiens, 10 μM, SW-620, Colon Cancer, read-out: Growth percentage
  activity at 10 µM: 53.3%
SW-620; [9]
  GI50: 10.5 µM
  IC50: 15.1 µM
SW-620; Homo sapiens, five-dose, SW-620, read-out: LC50 (the source's name)
  CC50: > 100 µM
SW-620; five-dose, SW-620
  TGI: 40.7 µM
SF-268; Homo sapiens, 10 μM, SF-268, CNS Cancer, read-out: Growth percentage
  activity at 10 µM: 76.1%
SF-268; [10]
  GI50: 22.4 µM
  IC50: 53.7 µM
SF-268; Homo sapiens, five-dose, SF-268, read-out: LC50 (the source's name)
  CC50: > 100 µM
SF-268; five-dose, SF-268
  TGI: 93.3 µM
SF-295; Homo sapiens, 10 μM, SF-295, CNS Cancer, read-out: Growth percentage
  activity at 10 µM: 93.3%
SF-295; [11]
  GI50: > 100 µM
  IC50: > 100 µM
SF-295; Homo sapiens, five-dose, SF-295, read-out: LC50 (the source's name)
  CC50: > 100 µM
SF-295; five-dose, SF-295
  TGI: 100.0 µM
SK-MEL-2; Homo sapiens, 10 μM, SK-MEL-2, Melanoma, read-out: Growth percentage
  activity at 10 µM: 60.8%
SK-MEL-2; [12]
  GI50: 46.8 µM
  IC50: > 100 µM
SK-MEL-2; Homo sapiens, five-dose, SK-MEL-2, read-out: LC50 (the source's name)
  CC50: > 100 µM
SK-MEL-2; five-dose, SK-MEL-2
  TGI: 100.0 µM
UACC-257; Homo sapiens, 10 μM, UACC-257, Melanoma, read-out: Growth percentage
  activity at 10 µM: 77.9%
UACC-257; [13]
  GI50: > 100 µM
  IC50: > 100 µM
UACC-257; Homo sapiens, five-dose, UACC-257, read-out: LC50 (the source's name)
  CC50: > 100 µM
UACC-257; five-dose, UACC-257
  TGI: 100.0 µM
OVCAR-4; Homo sapiens, 10 μM, OVCAR-4, Ovarian Cancer, read-out: Growth percentage
  activity at 10 µM: 106%
OVCAR-4; [14]
  GI50: > 100 µM
  IC50: > 100 µM
OVCAR-4; Homo sapiens, five-dose, OVCAR-4, read-out: LC50 (the source's name)
  CC50: > 100 µM
OVCAR-4; five-dose, OVCAR-4
  TGI: 100.0 µM
786−0; Homo sapiens, 10 μM, 786−0, Renal Cancer, read-out: Growth percentage
  activity at 10 µM: 74.3%
786−0; Homo sapiens, five-dose, 786−0
  GI50: > 100 µM
  IC50: > 100 µM
786−0; Homo sapiens, five-dose, 786−0, read-out: LC50 (the source's name)
  CC50: > 100 µM
786−0; five-dose, 786−0
  TGI: 100.0 µM
ACHN; [15]
  activity at 10 µM: 99.1%
ACHN; Homo sapiens, five-dose
  GI50: > 100 µM
  IC50: > 100 µM
ACHN; [1]
  CC50: > 100 µM
ACHN; five-dose
  TGI: 100.0 µM
CAKI-1; Homo sapiens, 10 μM, CAKI-1, Renal Cancer, read-out: Growth percentage
  activity at 10 µM: 102%
CAKI-1; [16]
  GI50: 87.1 µM
  IC50: > 100 µM
CAKI-1; Homo sapiens, five-dose, CAKI-1, read-out: LC50 (the source's name)
  CC50: > 100 µM
CAKI-1; five-dose, CAKI-1
  TGI: 100.0 µM
RXF 393
  activity at 10 µM: -8.1%
SN12C; [15]
  activity at 10 µM: 51%
SN12C; Homo sapiens, five-dose
  GI50: 44.7 µM
  IC50: > 100 µM
SN12C; [1]
  CC50: > 100 µM
SN12C; five-dose
  TGI: 100.0 µM
TK-10; Homo sapiens, 10 μM, TK-10, Renal Cancer, read-out: Growth percentage
  activity at 10 µM: 108%
TK-10; Homo sapiens, five-dose, TK-10
  GI50: > 100 µM
  IC50: > 100 µM
TK-10; Homo sapiens, five-dose, TK-10, read-out: LC50 (the source's name)
  CC50: > 100 µM
TK-10; five-dose, TK-10
  TGI: 100.0 µM
DU-145; Homo sapiens, 10 μM, DU-145, Prostate Cancer, read-out: Growth percentage
  activity at 10 µM: 94.6%
DU-145; [17]
  GI50: > 100 µM
  IC50: > 100 µM
DU-145; Homo sapiens, five-dose, DU-145, read-out: LC50 (the source's name)
  CC50: > 100 µM
DU-145; five-dose, DU-145
  TGI: 100.0 µM
MCF7; Homo sapiens, MCF7, 10 μM, MCF7, Breast Cancer, read-out: Growth percentage
  activity at 10 µM: 6.5%
MCF7; Homo sapiens, five-dose, MCF7
  GI50: 0.4 µM
  IC50: 0.6 µM
MCF7; Homo sapiens, five-dose, MCF7, read-out: LC50 (the source's name)
  CC50: > 100 µM
MCF7; five-dose, MCF7
  TGI: 3.5 µM
MDA-MB231/ATCC; Homo sapiens, MDA-MB-231
  GI50: > 100 µM
  IC50: > 100 µM
MDA-MB231/ATCC; Homo sapiens, five-dose, MDA-MB-231/ATCC, read-out: LC50 (the source's name)
  CC50: > 100 µM
MDA-MB231/ATCC; five-dose, MDA-MB-231/ATCC
  TGI: 100.0 µM
HS 578T; Homo sapiens, 10 μM, Breast Cancer, read-out: Growth percentage
  activity at 10 µM: 61.5%
HS 578T; Homo sapiens, five-dose
  GI50: 18.6 µM
  IC50: 70.8 µM
HS 578T; [1]
  CC50: > 100 µM
HS 578T; five-dose
  TGI: 75.9 µM
MDA-MB-468; Homo sapiens
  GI50: 3.9 µM
  IC50: > 100 µM
MDA-MB-468; [2]
  CC50: > 100 µM
MDA-MB-468
  TGI: 15.5 µM
